The test system of one experiment is brain. As to the kind of experiment: Matured TTM-001 and TTM-002 variants, NGS enrichment in mouse brain. It counts as in vivo, mice. The following applies: NGS fold-enrichment, brain of mice, relative to AAV9 control.
KTVNGNGSPHSKAQNKQT: the “Fold Enrichment relative to AAV9, Brain (Mouse)” value is 69.455 fold.

On to KTEKMSGSPHSKAQNQQT, for which the “Fold Enrichment relative to AAV9, Brain (Mouse)” value stood at 109.161 fold.

Still in this experiment, the particulars now being: NGS fold-enrichment, mouse brain, relative to AAV9 control.
KTVNGNGSPHSKAQNKQT: the “Fold Enrichment relative to AAV9, Brain (Mouse)” value came out at 69.455 fold.

For KTEKMSGSPHSKAQNQQT, the “Fold Enrichment relative to AAV9, Brain (Mouse)” value stood at 109.161 fold.

Regarding KTINGCGSPHASGQNQQT, the “Fold Enrichment relative to AAV9, Brain (Mouse)” value is listed as 1.857 fold.

The same experiment, now with this note: mouse brain; relative to AAV9 control.
In the case of KSINGSGSPHSKAPNLQT, the “Fold Enrichment relative to AAV9, Brain (Mouse)” value came out at 59.270 fold.

Turning to KTVNGSGSPHSKAQDKQT, the “Fold Enrichment relative to AAV9, Brain (Mouse)” value came out at 69.225 fold.

For KTINGSGSPHSKAQYRAT, the “Fold Enrichment relative to AAV9, Brain (Mouse)” value amounted to 50.650 fold.

Take KTINGSGSPHSKRLEQQT: the “Fold Enrichment relative to AAV9, Brain (Mouse)” value worked out at 71.704 fold.

Take KTINGSGSPHSKRMEQQT: the “Fold Enrichment relative to AAV9, Brain (Mouse)” value came out at 81.769 fold.

A further experiment deals with brains, heart, liver, muscle, and DRG of the NHPs. As to the kind of experiment: Maturation of TTM-001 and TTM-002 capsids, NGS enrichment in NHP tissues. The following applies: NGS fold-enrichment of RNA, NHP brain, relative to AAV9 control. The experiment is classed as in vivo. A digest of the protocol: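 Variants carry mutations within and flanking the loop IV peptide insert: positions 450–466 were triplet-randomized, while positions 449–466 received low-frequency point mutations. The combined pool went into two NHPs, and each peptide was scored by NGS enrichment ratio against AAV9.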
As to KTVNGNGSPHSKAQNKQT, the “Fold Enrichment relative to AAV9, Brain (NHP)” value is listed as 81.481 fold.

Regarding KTEKMSGSPHSKAQNQQT, the “Fold Enrichment relative to AAV9, Brain (NHP)” value worked out at 169.461 fold.

As for KTINGCGSPHASGQNQQT, the “Fold Enrichment relative to AAV9, Brain (NHP)” value came out at 132.540 fold.

Still in this experiment, the particulars now being: NGS fold-enrichment of matured AAV capsid variants; NHP brain, RNA; relative to AAV9 control.
Consider KSINGSGSPHSKAPNLQT, for which the “Fold Enrichment relative to AAV9, Brain (NHP)” value was determined as 51.812 fold.

Regarding KTVNGSGSPHSKAQDKQT, the “Fold Enrichment relative to AAV9, Brain (NHP)” value is 51.580 fold.

On to KTINGSGSPHSKAQYRAT, for which the “Fold Enrichment relative to AAV9, Brain (NHP)” value turned out to be 51.008 fold.

In the case of KTINGSGSPHSKRLEQQT, the “Fold Enrichment relative to AAV9, Brain (NHP)” value is given as 53.512 fold.

KTINGSGSPHSKRMEQQT: the “Fold Enrichment relative to AAV9, Brain (NHP)” value is listed as 50.177 fold.

The same experiment, now with this note: NGS fold-enrichment, DRG of NHPs, relative to AAV9 control.
As to KTVNGNGSPHSKAQNKQT, the “Fold Enrichment relative to AAV9, DRG (NHP)” value stood at 0.000 fold.

Take KTEKMSGSPHSKAQNQQT: the “Fold Enrichment relative to AAV9, DRG (NHP)” value is reported as 0.523 fold.

The same experiment, now with this note: NGS fold-enrichment, NHP DRG, relative to AAV9 control.
With KTVNGNGSPHSKAQNKQT, the “Fold Enrichment relative to AAV9, DRG (NHP)” value turned out to be 0.000 fold.

Regarding KTEKMSGSPHSKAQNQQT, the “Fold Enrichment relative to AAV9, DRG (NHP)” value amounted to 0.523 fold.

Consider KTINGCGSPHASGQNQQT, for which the “Fold Enrichment relative to AAV9, DRG (NHP)” value was determined as 0.000 fold.

The experiment is the same for the next values; noted with them: NGS fold-enrichment, NHP heart, relative to AAV9 control.
In the case of KTVNGNGSPHSKAQNKQT, the “Fold Enrichment relative to AAV9, Heart (NHP)” value stood at 0.000 fold.

On to KTEKMSGSPHSKAQNQQT, for which the “Fold Enrichment relative to AAV9, Heart (NHP)” value is reported as 0.000 fold.

In the case of KTINGCGSPHASGQNQQT, the “Fold Enrichment relative to AAV9, Heart (NHP)” value amounted to 0.121 fold.

The experiment is the same for the next values; noted with them: NGS fold-enrichment, NHP liver DNA, relative to AAV9 control.
On to KTVNGNGSPHSKAQNKQT, for which the “Fold Enrichment relative to AAV9, Liver DNA (NHP)” value turned out to be 0.122 fold.

Regarding KTEKMSGSPHSKAQNQQT, the “Fold Enrichment relative to AAV9, Liver DNA (NHP)” value is on record as 0.158 fold.

In the case of KTINGCGSPHASGQNQQT, the “Fold Enrichment relative to AAV9, Liver DNA (NHP)” value came to 0.059 fold.

The experiment is the same for the next values; noted with them: NGS fold-enrichment, NHP liver RNA, relative to AAV9 control.
In the case of KTVNGNGSPHSKAQNKQT, the “Fold Enrichment relative to AAV9, Liver RNA (NHP)” value is listed as 0.000 fold.

On to KTEKMSGSPHSKAQNQQT, for which the “Fold Enrichment relative to AAV9, Liver RNA (NHP)” value is recorded as 0.000 fold.

For KTINGCGSPHASGQNQQT, the “Fold Enrichment relative to AAV9, Liver RNA (NHP)” value stood at 0.000 fold.

Staying with this experiment, now noted: NGS fold-enrichment, NHP muscle, relative to AAV9 control.
Consider KTVNGNGSPHSKAQNKQT, for which the “Fold Enrichment relative to AAV9, Muscle (NHP)” value was determined as 0.000 fold.

For the sequence KTEKMSGSPHSKAQNQQT, the “Fold Enrichment relative to AAV9, Muscle (NHP)” value is listed as 0.000 fold.

Consider KTINGCGSPHASGQNQQT, for which the “Fold Enrichment relative to AAV9, Muscle (NHP)” value worked out at 0.042 fold.

The same experiment, now with this note: NGS fold-enrichment, RNA, brain of NHPs, relative to AAV9 control.
For KTVNGNGSPHSKAQNKQT, the “Fold Enrichment relative to AAV9, Brain (NHP)” value turned out to be 81.481 fold.

In the case of KTEKMSGSPHSKAQNQQT, the “Fold Enrichment relative to AAV9, Brain (NHP)” value came to 169.461 fold.

Staying with this experiment, now noted: NGS fold-enrichment, heart of NHPs, relative to AAV9 control.
As to KTVNGNGSPHSKAQNKQT, the “Fold Enrichment relative to AAV9, Heart (NHP)” value came out at 0.000 fold.

For KTEKMSGSPHSKAQNQQT, the “Fold Enrichment relative to AAV9, Heart (NHP)” value is 0.000 fold.

The experiment is the same for the next values; noted with them: NGS fold-enrichment, liver DNA of NHPs, relative to AAV9 control.
For KTVNGNGSPHSKAQNKQT, the “Fold Enrichment relative to AAV9, Liver DNA (NHP)” value turned out to be 0.122 fold.

Take KTEKMSGSPHSKAQNQQT: the “Fold Enrichment relative to AAV9, Liver DNA (NHP)” value came out at 0.158 fold.

The experiment is the same for the next values; noted with them: NGS fold-enrichment, liver RNA of NHPs, relative to AAV9 control.
As for KTVNGNGSPHSKAQNKQT, the “Fold Enrichment relative to AAV9, Liver RNA (NHP)” value is recorded as 0.000 fold.

Regarding KTEKMSGSPHSKAQNQQT, the “Fold Enrichment relative to AAV9, Liver RNA (NHP)” value is 0.000 fold.

The experiment is the same for the next values; noted with them: NGS fold-enrichment, muscle of NHPs, relative to AAV9 control.
For KTVNGNGSPHSKAQNKQT, the “Fold Enrichment relative to AAV9, Muscle (NHP)” value came to 0.000 fold.

Consider KTEKMSGSPHSKAQNQQT, for which the “Fold Enrichment relative to AAV9, Muscle (NHP)” value is listed as 0.000 fold.

The experiment is the same for the next values; noted with them: NHP DRG; relative to AAV9 control.
Take KSINGSGSPHSKAPNLQT: the “Fold Enrichment relative to AAV9, DRG (NHP)” value is reported as 0.000 fold.

As to KTVNGSGSPHSKAQDKQT, the “Fold Enrichment relative to AAV9, DRG (NHP)” value is 0.428 fold.

Take KTINGSGSPHSKAQYRAT: the “Fold Enrichment relative to AAV9, DRG (NHP)” value is 0.000 fold.

As for KTINGSGSPHSKRLEQQT, the “Fold Enrichment relative to AAV9, DRG (NHP)” value amounted to 0.000 fold.

As to KTINGSGSPHSKRMEQQT, the “Fold Enrichment relative to AAV9, DRG (NHP)” value was determined as 0.000 fold.

The experiment is the same for the next values; noted with them: NHP heart; relative to AAV9 control.
In the case of KSINGSGSPHSKAPNLQT, the “Fold Enrichment relative to AAV9, Heart (NHP)” value stood at 0.256 fold.

For KTVNGSGSPHSKAQDKQT, the “Fold Enrichment relative to AAV9, Heart (NHP)” value is listed as 0.000 fold.

Take KTINGSGSPHSKAQYRAT: the “Fold Enrichment relative to AAV9, Heart (NHP)” value was determined as 0.158 fold.

As to KTINGSGSPHSKRLEQQT, the “Fold Enrichment relative to AAV9, Heart (NHP)” value stood at 0.118 fold.

In the case of KTINGSGSPHSKRMEQQT, the “Fold Enrichment relative to AAV9, Heart (NHP)” value worked out at 0.000 fold.

The experiment is the same for the next values; noted with them: NHP liver, DNA; relative to AAV9 control.
With KSINGSGSPHSKAPNLQT, the “Fold Enrichment relative to AAV9, Liver DNA (NHP)” value is given as 0.139 fold.

As for KTVNGSGSPHSKAQDKQT, the “Fold Enrichment relative to AAV9, Liver DNA (NHP)” value is reported as 0.063 fold.

Take KTINGSGSPHSKAQYRAT: the “Fold Enrichment relative to AAV9, Liver DNA (NHP)” value amounted to 0.120 fold.

Turning to KTINGSGSPHSKRLEQQT, the “Fold Enrichment relative to AAV9, Liver DNA (NHP)” value came to 0.292 fold.

KTINGSGSPHSKRMEQQT: the “Fold Enrichment relative to AAV9, Liver DNA (NHP)” value is given as 0.208 fold.

Still in this experiment, the particulars now being: NHP liver, RNA; relative to AAV9 control.
On to KSINGSGSPHSKAPNLQT, for which the “Fold Enrichment relative to AAV9, Liver RNA (NHP)” value was 0.085 fold.

Take KTVNGSGSPHSKAQDKQT: the “Fold Enrichment relative to AAV9, Liver RNA (NHP)” value was determined as 0.041 fold.

On to KTINGSGSPHSKAQYRAT, for which the “Fold Enrichment relative to AAV9, Liver RNA (NHP)” value worked out at 0.690 fold.

For KTINGSGSPHSKRLEQQT, the “Fold Enrichment relative to AAV9, Liver RNA (NHP)” value is 0.161 fold.

As for KTINGSGSPHSKRMEQQT, the “Fold Enrichment relative to AAV9, Liver RNA (NHP)” value was 1.327 fold.

The same experiment, now with this note: NHP muscle; relative to AAV9 control.
KSINGSGSPHSKAPNLQT: the “Fold Enrichment relative to AAV9, Muscle (NHP)” value is on record as 0.000 fold.

For KTVNGSGSPHSKAQDKQT, the “Fold Enrichment relative to AAV9, Muscle (NHP)” value is on record as 0.069 fold.

As for KTINGSGSPHSKAQYRAT, the “Fold Enrichment relative to AAV9, Muscle (NHP)” value was found to be 0.000 fold.

In the case of KTINGSGSPHSKRLEQQT, the “Fold Enrichment relative to AAV9, Muscle (NHP)” value was determined as 0.003 fold.

Turning to KTINGSGSPHSKRMEQQT, the “Fold Enrichment relative to AAV9, Muscle (NHP)” value came out at 0.000 fold.
